Assay results: paper PMC5342071, “A first generation inhibitor of human Greatwall kinase, enabled by structural and functional characterisation of a minimal kinase domain construct” (Oncotarget, 2016)

Key:
[1] = system: HeLa cells; experiment: Immunofluorescence of p-ENSA (Ser67) in nocodazole-arrested HeLa cells; type: cell-based, human
Text: To more directly address the presence of other off-target effects, and / or any level of compound toxicity, we conducted a more comprehensive phenotypic analysis of GKI-1 and GWL siRNA (siGWL, Figure 5A) treated cells by immunofluorescence (IF) and time-lapse video microscopy. Using an antibody that specifically detects phosphorylation of ENSA-Ser67 (p-ENSA), we established an IF assay in order to measure GWL kinase activity in HeLa cells. We treated the cells with nocodazole in order to arrest cells in mitosis, the cell cycle stage where GWL is maximally active (Figure 5B).
Figure 5 In cellulo efficacy of GKI-1 in HeLa cells A. HeLa cells were transfected with either non-targeting (siSCR) or GWL targeting siRNAs (siGWL). GWL and loading control protein (Tubulin) were detected by western analysis. B., C. HeLa cells treated with siSCR or siGWL (48-h) were arrested in mitosis using nocodazole and treated with DMSO, 25 μM or 50 μM GKI-1. […] (C) Quantitation of the IF p-ENSA and GWL signals was performed using the ScanR High-Content Screening Station. […] Time-lapse videos were generated using ImageJ and cellular phenotypes recorded: Mitotic events (D), mitotic arrest (E, F) and failed cytokinesis G. F. Kymographs showing an example of typical phenotypes were generated by capturing images every 5 minutes for 80 minutes. […]
HeLa cells were plated on glass coverslips and then transfected with siRNAs using Lipofectamine RNAiMax [ThermoFisher Scientific]. […] Time-lapse videos for treated cells were recorded on an Olympus IX3 microscope fitted with an Ocra-Flash 4.0 CMOS camera [Hamatsu]. […]
hGWLFL, 100 µl of lysate was diluted 5-fold with IP buffer and combined with 3 µl anti-Flag M2 magnetic Dynabeads [Sigma-Aldrich] overnight at 4 °C. […] The reaction was stopped by adding SDS loading buffer and analysed by western blot: p-ENSA and GWL levels were detected using the anti-phospho(Ser67)-ENSA and anti-MASTL(GWL, Prestige) antibodies. Activity was measured as the p-ENSA/GWL ratio and % kinase activity was normalised to the DMSO control. […]

[2] = system: HeLa cells; experiment: Time-lapse video microscopy of HeLa cells; type: cell-based, human
Procedure: Figure 5 In cellulo efficacy of GKI-1 in HeLa cells A. HeLa cells were transfected with either non-targeting (siSCR) or GWL targeting siRNAs (siGWL). GWL and loading control protein (Tubulin) were detected by western analysis. B., C. HeLa cells treated with siSCR or siGWL (48-h) were arrested in mitosis using nocodazole and treated with DMSO, 25 μM or 50 μM GKI-1. Immunofluorescent staining of p-ENSA (Red) and GWL (Green) was achieved using anti-phospho(Ser67)-ENSA and anti-MASTL(GWL, RIPLY 74C) antibodies and DAPI was used to stain the nucleus (Blue). (C) Quantitation of the IF p-ENSA and GWL signals was performed using the ScanR High-Content Screening Station. The Circularity and Total DAPI parameters were used to identify mitotic cells. D., E. HeLa cells treated with siSCR or siGWL (48-h) were treated with DMSO, 25 or 50 μM GKI-1. 4-h after treatment, μ-slides were mounted onto an Olympus IX73 microscope, within a temperature-controlled 37°C chamber maintained at 5% CO2, and images were acquired every 5-min for 8.5-h. Time-lapse videos were generated using ImageJ and cellular phenotypes recorded: Mitotic events (D), mitotic arrest (E, F) and failed cytokinesis G. F. Kymographs showing an example of typical phenotypes were generated by capturing images every 5 minutes for 80 minutes. Image sequences were chosen to start just before mitotic entry. (B - G) A total of 3 - 5 biological replicates were completed per condition and the t-test statistical module of Prism 6.0 was used to determine p-values (ns (not statistically significant): P > 0.05; *: P ≤ 0.05; **: P ≤ 0.01; ***: P ≤ 0.001).
HeLa cells were plated on glass coverslips and then transfected with siRNAs using Lipofectamine RNAiMax [ThermoFisher Scientific]. 48 hours after treatment, cells to be used for immunofluorescence were treated with nocodozole and DMSO, or GKI-1. After fixing and staining with antibodies, cells were visualised with a ScanR High Content Screening Station [Olympus Life Science]. Time-lapse videos for treated cells were recorded on an Olympus IX3 microscope fitted with an Ocra-Flash 4.0 CMOS camera [Hamatsu]. […]
Immunofluorescence and Time-lapse video microscopy
2.5 X 105 HeLa cells were plated onto glass coverslips in a 6-well plate, or 4-well µ-slides [Ibidi GmbH] were seeded with 5 X 104 cells and then transfected with Qiagen AllStars negative control or Hs_MASTL_6 siRNAs (14) using Lipofectamine RNAiMax [ThermoFisher Scientific]. Media was exchanged with fresh media the next day. 48 hours after siRNA treatment, only cells to be used for immunofluorescence (IF) were treated with nocodazole (200 ng/mL) and DMSO or GKI-1 at the indicated concentration. For IF, cells were fixed, stained with primary mouse anti-GWL and rabbit anti-p-ENSA antibodies, secondary Alexa Fluor 647-conjugated anti-rabbit and Alexa Fluor 488-conjugated anti-mouse antibodies, DAPI and mounted onto glass microscope slides using Diamond Antifade Mountant [Molecular Probes, ThermoFisher Scientific]. Quantitation of IF images was performed using the ScanR High-Content Screening Station [Olympus Life Science] which acquired 220, 40x images per cover slip. Data were normalised against the AllStars negative control siRNA treated cells and values obtained from three biological replicates were reported as the mean ± 1 S.D. To assist with selecting mitotic cells, ScanR imaging software was utilised to gate for mitotic cells using the circularity factor and total […]
To produce time-lapse videos, after 48 hours and cell treatment with DMSO or compound (cells were treated with GKI-1 for 4-h before image acquisition) cells plated in 4-well µ-slides were imaged every 5 minutes for 8.5 hours on an Olympus IX73 microscope, using a 40 x 0.95NA air objective, and recorded on an Orca-Flash 4.0 CMOS camera [Hamatsu]. The computer program Fiji (http://www.fiji.sc/Fiji) was used to generate videos from […]
image sequence TIF files. […]

[3] = system: 50 different protein kinases; experiment: Kinase inhibition profiling against 50 protein kinases (University of Dundee); type: biochemical, human; settings: 25 μM
Procedure: In order to gain a greater understanding of potential off-target interactions of GKI-1, we undertook more rigorous kinase inhibition profiling (International Centre for Kinase Profiling, University of Dundee) where GKI-1 was tested against 50 different protein kinases, carefully selected to provide representative sampling across the human kinome.
Figure S9. Kinase phylogeny vs GKI-1 inhibitory activity
Kinome render [Manning et al. (2002)] was used to generate a phylogenetic map with overlapping 25
µM GKI-1 inhibitory activity plotted against 50 kinases, carefully selected to represent the human
kinome. Illustration reproduced courtesy of Cell Signaling Technology, Inc. (www.cellsignal.com)
(1 picture or pasted object on this page, not shown here)

- sensitivity of treated cells to fluorescent light ([2]; blue to green spectrum, live cell imaging): highly sensitive
- off-target interactions in kinase panel [3]: several off-target interactions
SMILES: Clc1ccc(Nc2cccc(-c3cn[nH]c3)c2)cc1 [GKI-1, N-(4-chlorophenyl)-3-(1H-pyrazol-4-yl)aniline]
- reduction in p-ENSA levels compared to control ([1]; 25 μM, nocodazole-arrested HeLa cells): 2 fold
- p-ENSA signal ([1]; 50 μM, nocodazole-arrested HeLa cells): levels comparable to siGWL treated cells
- levels of p-ENSA by immunofluorescence ([1]; co-incubation with nocodazole, 25 and 50 μM): dose-dependent decrease
- mitotic events ([2]; 50 μM): effect comparable to siGWL treatment
- time remaining in prometaphase/metaphase ([2]; 50 μM): two to six
- mitotic events ([2]; 25 and 50 μM, vs scrambled control siRNA): general decrease in mitotic events
- failure in cytokinesis ([2]; GKI-1 treated cells compared with GWL depletion): only rarely observed
- mitotic progression ([2]; relative to SCR-treated cells): significant delay in mitotic progression
